Where a name gives a salt, the structure may show the parent alone. Read-outs that look alike come from different tables or passages of the source.
Legend:
[1] = system: LPS-induced microglia activation; experiment: Image-based assay of LPS-induced microglia activation (HTS and dose response); format: cell-based, rat; conditions: for inhibition at 10 µM: Rattus norvegicus, Microglia, read-out: LPS % inhibition
[2] = system: fibrin- and LPS-induced microglia activation; experiment: cells; format: cell-based, rat
primary rat microglia [3] = experiment: Cell toxicity (dead cells, size <150 μm2) in LPS assay; conditions: primary microglia HTS, 10 μM, LPS assay, cell size <150 μm^2 as marker of toxicity
[4] = system: fibrin-induced microglia activation; experiment: Image-based assay of fibrin-induced microglia activation (HTS and dose response); format: cell-based, rat; conditions: primary microglia HTS; for inhibition at 10 µM: Rattus norvegicus, Microglia, read-out: Fibrin % inhibition
primary rat microglia [5] = system: primary rat microglia
primary rat microglia [6] = experiment: Cell toxicity (dead cells, size <150 μm2) in coated fibrin (cFib) assay; conditions: primary microglia HTS;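 further: share of dead cells sized under 150 µm2 at 10 µM in fibrin-stimulated microglia HTS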
[7] = primary microglia HTS, 10 μM, LPS-stimulated, cell size >800 μm^2 as marker of activation
[8] = HTS of 1907 compounds, quadrant by fibrin and LPS inhibition
[9] = 10 μM, fibrin-stimulated, cell size >800 μm^2 as marker of activation
[10] = classification by fibrin and LPS inhibition in HTS
[11] = fibrin stimulation, cell size <150 μm2 as marker of toxicity
[12] = fibrin stimulation, cell size >800 μm2 as marker of activation
[13] = primary microglia HTS, LPS stimulation, compounds at 10 μM
[14] = quadrant by fibrin and LPS inhibition, HTS at 10 μM
[15] = fibrin assay, dead cells (size <150 μm2)
[16] = fibrin stimulation, compounds at 10 μM
[17] = classification by fibrin and LPS inhibition, HTS at 10 μM
[18] = fibrin assay, dead cells (size <150 μm2), compounds at 10 μM

## CC[C@H]1OC(=O)C[C@@H](O)[C@H](C)[C@@H](O[C@@H]2O[C@H](C)[C@@H](O[C@H]3C[C@@](C)(O)[C@@H](O)[C@H](C)O3)[C@H](N(C)C)[C@H]2O)[C@@H](CC=O)C[C@@H](C)C(=O)/C=C/C(C)=C/[C@@H]1CO[C@@H]1O[C@H](C)[C@@H](O)[C@@H](OC)[C@H]1OC.O=C(O)C(O)C(O)C(=O)O [Tylosin Tartrate]
[1]; [7]
  LPS % inhibition: 11%
[2]; [8]
  Quadrant (FIG. 5b): Q4
Primary rat microglia [3]
  LPS % cell toxicity: 0%
[4]; [9]
  Fibrin % inhibition: 9%

## CCNC1(c2cccs2)CCCCC1=O.Cl (stereo not drawn) [Tiletamine Hydrochloride]
[1]; [7]
  LPS % inhibition: 22%
[2]; [8]
  Quadrant (FIG. 5b): Q4
Primary rat microglia [3]
  LPS % cell toxicity: 0%
[4]; [9]
  Fibrin % inhibition: 8%

## Nc1nc2c(ncn2CCC(CO)CO)c(=O)[nH]1 [Penciclovir]
[1]; 48 h
  inhibition at 10 µM: 4%
[2]; [10]
  Quadrant (FIG. 5b): Q4
Primary rat microglia [5]; rat
  LPS % cell toxicity: 0%
Primary rat microglia [6]; [11]
  Fibrin % cell toxicity: 1%
[4]; [12]
  inhibition at 10 µM: -44%

## Pizotyline Malate
[1]
  LPS % inhibition: 37%
[2]; [10]
  Quadrant (FIG. 5b): Q4
Primary rat microglia [5]
  LPS % cell toxicity: 1%
Primary rat microglia [6]; [11]
  Fibrin % cell toxicity: 1%
[4]; [12]
  Fibrin % inhibition: 8%

## C=C1/C(=C\C=C2/CCC[C@]3(C)[C@@H]([C@H](C)CCCC(C)C)CC[C@@H]23)C[C@@H](O)C[C@@H]1O [Alfacalcidol]
[1]; [13]
  inhibition at 10 µM: 4%
[2]; [14]
  Quadrant (FIG. 5b): Q4
Primary rat microglia [5]; rat
  LPS % cell toxicity: 0%
Primary rat microglia [6]; [15]
  Fibrin % cell toxicity: 1%
[4]; [16]
  inhibition at 10 µM: -26%

## CC(C(=O)O)c1ccc2c(c1)Cc1cccnc1O2 (stereo not drawn) [Pranoprofen]
[1]; 48 h, primary microglia HTS, LPS stimulation, cell size >800 μm2 as marker of activation
  inhibition at 10 µM: 8%
[2]; [10]
  Quadrant (FIG. 5b): Q4
Primary rat microglia [5]; rat
  LPS % cell toxicity: 0%
Primary rat microglia [6]; [11]
  Fibrin % cell toxicity: 1%
[4]; [12]
  inhibition at 10 µM: -14%

## CNCC(=O)c1ccc(O)c(O)c1.Cl [Adrenolone Hydrochloride]
[1]; [13]
  LPS % inhibition: 32%
[2]; [14]
  Quadrant (FIG. 5b): Q4
Primary rat microglia [5]
  LPS % cell toxicity: 0%
Primary rat microglia [6]; [15]
  Fibrin % cell toxicity: 0%
[4]; [16]
  Fibrin % inhibition: 28%

## CCC(=O)Oc1ccc2c(c1)CC[C@@H]1[C@@H]2CC[C@]2(C)[C@@H](OC(=O)CC)CC[C@@H]12 [Estradiol Dipropionate]
[1]; [13]
  inhibition at 10 µM: 17%
[2]; [17]
  Quadrant (FIG. 5b): Q4
Primary rat microglia [5]; rat
  LPS % cell toxicity: 1%
Primary rat microglia [6]; [18]
  Fibrin % cell toxicity: 1%
[4]; [16]
  inhibition at 10 µM: 0%

## CC(=O)OCC(=O)NCCCOc1cccc(CN2CCCCC2)c1 [Roxatidine acetate]
[1]; 48 h
  inhibition at 10 µM: 6%
[2]; [10]
  Quadrant (FIG. 5b): Q4
Primary rat microglia [5]; rat
  LPS % cell toxicity: 0%
Primary rat microglia [6]; [11]
  Fibrin % cell toxicity: 1%
[4]; [12]
  inhibition at 10 µM: 22%

## CC(C)NCC(O)COc1cccc2[nH]ccc12 (stereo not drawn) [Pindolol]
[1]; 48 h
  inhibition at 10 µM: 24%
[2]; [10]
  Quadrant (FIG. 5b): Q4
Primary rat microglia [5]; rat
  LPS % cell toxicity: 1%
Primary rat microglia [6]; [11]
  Fibrin % cell toxicity: 1%
[4]; [12]
  inhibition at 10 µM: -13%

## Nc1nc2c(ncn2COCCO)c(=O)[nH]1 [Aciclovir]
[1]; [13]
  inhibition at 10 µM: 3%
[2]; [14]
  Quadrant (FIG. 5b): Q4
Primary rat microglia [5]; rat
  LPS % cell toxicity: 1%
Primary rat microglia [6]; [15]
  Fibrin % cell toxicity: 1%
[4]; [16]
  inhibition at 10 µM: -20%

## CN1CCCC(n2nc(Cc3ccc(Cl)cc3)c3ccccc3c2=O)CC1 (stereo not drawn) [Azelastine, Azelastine Hydrochloride]
[1]; [13]
  LPS % inhibition: 11%
[2]; [14]
  Quadrant (FIG. 5b): Q4
Primary rat microglia [5]
  LPS % cell toxicity: 0%
Primary rat microglia [6]; [15]
  Fibrin % cell toxicity: 0%
[4]; [16]
  Fibrin % inhibition: 5%

## CN1C[C@H](C(=O)N[C@]2(C)O[C@@]3(O)[C@@H]4CCCN4C(=O)[C@H](Cc4ccccc4)N3C2=O)C=C2c3cccc4[nH]cc(c34)C[C@H]21 [Ergotamine Tartrate]
[1]; primary microglia HTS, LPS stimulation, compounds at 10 μM, 10 µM
  LPS % inhibition: 22%
[2]; [17]
  Quadrant (FIG. 5b): Q4
Primary rat microglia [5]; rat
  LPS % cell toxicity: 1%
Primary rat microglia [6]; [18]
  Fibrin % cell toxicity: 0%
[4]; fibrin stimulation, compounds at 10 μM, 10 µM
  Fibrin % inhibition: 31%

## O=C(O)CCNC(=O)c1ccc(/N=N/c2ccc(O)c(C(=O)O)c2)cc1 [Balsalazide]
[1]; [13]
  inhibition at 10 µM: 11%
[2]; [14]
  Quadrant (FIG. 5b): Q4
Primary rat microglia [5]; rat
  LPS % cell toxicity: 0%
Primary rat microglia [6]; [15]
  Fibrin % cell toxicity: 0%
[4]; [16]
  inhibition at 10 µM: -2%

## CCC1(C2=NCCN2)Cc2ccccc2O1 (stereo not drawn) [Efaroxan, Efaroxan Hydrochloride]
[1]; [13]
  LPS % inhibition: 5%
[2]; [17]
  Quadrant (FIG. 5b): Q4
Primary rat microglia [5]
  LPS % cell toxicity: 0%
Primary rat microglia [6]; [18]
  Fibrin % cell toxicity: 1%
[4]; [16]
  Fibrin % inhibition: 1%

## CCOC(=O)[C@H](CCc1ccccc1)N[C@@H](C)C(=O)N1Cc2ccccc2C[C@H]1C(=O)O [Quinapril]
[1]; 48 h
  inhibition at 10 µM: 13%
[2]; [10]
  Quadrant (FIG. 5b): Q4
Primary rat microglia [5]; rat
  LPS % cell toxicity: 0%
Primary rat microglia [6]; [11]
  Fibrin % cell toxicity: 1%
[4]; [12]
  inhibition at 10 µM: -24%

## Nc1nc(N)c2nc(CNc3ccc(C(=O)N[C@@H](CCC(=O)O)C(=O)O)cc3)cnc2n1 [Aminopterin]
[1]; [13]
  inhibition at 10 µM: 17%
[2]; [14]
  Quadrant (FIG. 5b): Q4
Primary rat microglia [5]; rat
  LPS % cell toxicity: 0%
Primary rat microglia [6]; [15]
  Fibrin % cell toxicity: 1%
[4]; [16]
  inhibition at 10 µM: -12%

## N=C(N)c1ccc(/N=N/Nc2ccc(C(=N)N)cc2)cc1 [Diminazene]
[1]; [13]
  inhibition at 10 µM: 11%
[2]; [17]
  Quadrant (FIG. 5b): Q4
Primary rat microglia [5]; rat
  LPS % cell toxicity: 0%
Primary rat microglia [6]; [18]
  Fibrin % cell toxicity: 0%
[4]; [16]
  inhibition at 10 µM: -58%

## O=C(O)c1cc(=O)c2c(OCC(O)COc3cccc4oc(C(=O)O)cc(=O)c34)cccc2o1 [Cromoglicic acid]
[1]; [13]
  inhibition at 10 µM: 8%
[2]; [17]
  Quadrant (FIG. 5b): Q4
Primary rat microglia [5]; rat
  LPS % cell toxicity: 0%
Primary rat microglia [6]; [18]
  Fibrin % cell toxicity: 0%
[4]; [16]
  inhibition at 10 µM: -28%

## C[C@]12CC[C@H]3C(=CCc4cc(O)ccc43)[C@@H]1CCC2=O [Equilin]
[1]; [13]
  inhibition at 10 µM: 15%
[2]; [17]
  Quadrant (FIG. 5b): Q4
Primary rat microglia [5]; rat
  LPS % cell toxicity: 0%
Primary rat microglia [6]; [18]
  Fibrin % cell toxicity: 0%
[4]; [16]
  inhibition at 10 µM: 1%

## CCOC(N)=O [Ethyl carbamate]
[1]; [13]
  inhibition at 10 µM: 27%
[2]; [17]
  Quadrant (FIG. 5b): Q4
Primary rat microglia [5]; rat
  LPS % cell toxicity: 0%
Primary rat microglia [6]; [18]
  Fibrin % cell toxicity: 1%
[4]; [16]
  inhibition at 10 µM: 44%

## CCN(CC)CCOC(=O)c1ccc(N)cc1 [Procaine, Novocain]
[1]
  LPS % inhibition: 25%
[2]; [10]
  Quadrant (FIG. 5b): Q4
Primary rat microglia [5]
  LPS % cell toxicity: 0%
Primary rat microglia [6]; [11]
  Fibrin % cell toxicity: 0%
[4]; [12]
  Fibrin % inhibition: −10%

## c1ccc2c(c1)sc1ccccc12 [Dibenzothiophene]
[1]; [13]
  inhibition at 10 µM: 14%
[2]; [17]
  Quadrant (FIG. 5b): Q4
Primary rat microglia [5]; rat
  LPS % cell toxicity: 0%
Primary rat microglia [6]; [18]
  Fibrin % cell toxicity: 0%
[4]; [16]
  inhibition at 10 µM: -21%

## CC[N+](CC)(CC(=O)Nc1c(C)cccc1C)Cc1ccccc1 [Denatonium Benzoate]
[1]; [13]
  inhibition at 10 µM: 12%
[2]; [17]
  Quadrant (FIG. 5b): Q4
Primary rat microglia [5]; rat
  LPS % cell toxicity: 0%
Primary rat microglia [6]; [18]
  Fibrin % cell toxicity: 0%
[4]; [16]
  inhibition at 10 µM: 2%

## CO[C@H]1C[C@H](O[C@H]2[C@H](C)O[C@@H](O[C@@H]3/C(C)=C/C[C@@H]4C[C@@H](C[C@]5(C=C[C@H](C)[C@@H](C6CCCCC6)O5)O4)OC(=O)[C@@H]4C=C(C)[C@@H](O)[C@H]5OC/C(=C\C=C\[C@@H]3C)[C@]54O)C[C@@H]2OC)O[C@@H](C)[C@@H]1O [Doramectin]
[1]; [13]
  LPS % inhibition: 7%
[2]; [17]
  Quadrant (FIG. 5b): Q4
Primary rat microglia [5]
  LPS % cell toxicity: 0%
Primary rat microglia [6]; [18]
  Fibrin % cell toxicity: 1%
[4]; [16]
  Fibrin % inhibition: −9%

Source: US20210330611A1, “THERAPY FOR NEUROLOGICAL DISEASES/DISORDERS” (priority 2020, published 2021)
